Test results from PMC2807854, “Monoketone analogs of curcumin, a new class of Fanconi anemia pathway inhibitors” (Molecular Cancer, 2009).
Where two headings read alike, the source gives them in different places. Residues, ends and D or L forms follow the SMILES beside them. *: point of attachment. Cbz = O=C(OCc1ccccc1)*

Assays:
[1] = system: xFANCD2-Ub (FANCD2 monoubiquitylation); experiment: Xenopus cell-free FA pathway assay: DNA substrate-induced xFANCD2 monoubiquitylation (immunoblot, densitometry); format: biochemical, Xenopus laevis; conditions: for activity against xFANCD2-Ub in Xenopus extracts: activated Xenopus extracts, serial dilutions up to 3000 μM; for IC50: plasmid-activated Xenopus extracts, Fig. 7B, read-out: xFANCD2-Ub inhibition IC50
Procedure: (§1) A series of monoketone analogs of curcumin [18] was evaluated in Xenopus egg extracts where DNA substrate-induced xFANCD2-Ub is used as a readout of FA pathway performance. Phosphorylation of MRE11 (MRE11-P), a member of the MRN DNA damage repair pathway was monitored to assess the cross-specificity of the compounds. For each compound, IC50 values were determined from serial dilution experiments and densitometry analysis of immunoblots.
(§2) IC50 values were determined using immunoblots of plasmid-activated extracts treated with a range of concentrations for each compound (0, 10, 25, 60, 150, 400, 1000, 3000 μM). A representative experiment is shown (out of 3 repeats). B) Structure of curcumin and monoketone analogs. […] Activated extracts were treated with 1 mM each compound and phosphorylation of RPA32 and H2AX monitored by immunoblot.
(§3) Preparation of Xenopus laevis low-speed extracts and the FA pathway assay were described previously.
(§4) Fitted curves were determined from experimental data using IgorPro. The concentration of compound that induces 50% inhibition of the measured endpoint (i.e. FANCD2 ubiquitylation, Mre11 phosphorylation and cell survival) was then plotted on the fitted curve.

proteasome [2] = experiment: Proteasome assay in Xenopus extracts, both activities taken together; format: biochemical, Xenopus laevis; conditions: caspase-like and chymotrypsin-like activities
Excerpt: The proteasome is required for the monoubiquitylation of xFANCD2 in cells. As curcumin has proteasome inhibiton activities, we tested whether EF24 inhibits xFANCD2-Ub by this mechanism. Two proteasome activities (caspase-like and chymotrypsin-like) along with xFANCD2-Ub status were monitored in activated Xenopus extracts treated with various compounds (Fig. 2A).
Proteasome activities and xFANCD2-Ub were monitored using fluorogenic probes and immunoblotting, respectively. IC50 values were determined for each compound using a range of concentrations and represented in histogram graphs. For MG132, numbers above caspase-like and chymotrypsin-like histograms indicate the actual IC50 values. A representative experiment is shown (out of 3 repeats).
Fluorogenic peptides (Proteasome Substrate Pack #PW9905) specific for the chymotrypsin-like and caspase-like activities of the proteasome were incubated in Xenopus extracts treated with serial dilutions of various compounds. Fluorescence emitted by proteasome cleavage of the peptides was monitored using a fluorometer (FluoStar Galaxy, BMG Labtech) with 380 nm and 460 nm excitation and emission filters, respectively. Experiments were repeated at least twice.

hFANCD2-Ub in HeLa cells = experiment: hFANCD2 ubiquitylation assay in hydroxyurea-treated HeLa cells (immunoblot, densitometry); format: cell-based, human; conditions: Homo sapiens; HeLa cells co-treated with hydroxyurea; read-out: hFANCD2-Ub inhibition IC50
Procedure: We next determined whether EF24 could inhibit hFANCD2-Ub in human cells. Curcumin was tested in parallel to assess whether activity difference observed in extracts are mirrored in cells. HeLa cells were co-treated with increasing concentrations of compounds and hydroxyurea (HU), a standard method to stimulate hFANCD2-Ub (Fig. 4A, lanes 1-2, 7-8, [30]).
A) Hydroxyurea-induced FANCD2-Ub in HeLa cells is inhibited by EF24 at lower concentrations than curcumin. hFANCD2-Ub was monitored by immunoblot and densitometry analysis to determine IC50. B) Hydroxyurea-induced hFANCD2 foci formation is inhibited by EF24. hFANCD2 foci were detected by immunofluorescence and the percentage of cells with more than 5 foci was determined for each treatment. Histograms represent the average of 3 experiments. Error bars represent standard deviation.
hFANCD2 ubiquitylation assay and immunofluorescence assays in HeLa cells have been described elsewhere.
as §4

334ATM WT cells = experiment: Survival assay (MTS), ATM wild-type mouse kidney cells; format: cell-based; conditions: 72 hrs, read-out: cell survival IC50 WT
Excerpt: (§5) To test this possibility, we compared the effects of curcumin and EF24 in an ATM KO mouse kidney cell line (309ATM KO) and its isogenic, wild type counterpart (334ATM WT). As expected from ATM deficiency, 309ATM KO cells were more sensitive to ionizing irradiation than 334ATM WT (Additional File 1 - Fig. S3). We next treated these cell lines with various concentrations of EF24 and measured their survival after 72 hrs.
(§6) Figure 6 EF24 but not curcumin or DRB is more toxic to ATM-deficient mouse kidney cells than wild-type cells. A) 309ATM KO and 334ATM WT cells were treated with various concentrations of EF24. Cell viability was measured after 3 days by MTS assay. Each point represents the mean of 3 repeats. Error bars represent standard deviation. B) Similar experiment was performed using curcumin.
(§7) HSC72OT and HSC72OT+A cells were seeded at 5,000 per well in 96-well plates, and treated 24 hrs later with various concentrations of compounds or DMSO (1 μl in 100 μl medium). 309ATM KO and 334ATM WT cells were seeded at 7,000 per well and treated immediately. Cell survival was measured after 3 days using the CellTiter 96 AQueous One Solution Cell Proliferation Assay (Promega) following the recommendations from the manufacturer. All experiments were done in triplicate.
as §4

309ATM KO cells = experiment: Survival assay (MTS), ATM KO mouse kidney cells; format: cell-based; conditions: for sensitivity of 309ATM KO cells compared to 334ATM WT cells: 72 hrs survival, KO vs WT; for IC50: 309ATM KO cells, 72 hrs, MTS, read-out: cell survival IC50 KO
Excerpt: as §5, §6, §7, §4

[3] = system: xMRE11-P (MRE11 phosphorylation); experiment: MRE11 phosphorylation in activated Xenopus extracts (immunoblot); format: biochemical, Xenopus laevis
Procedure: as §1, §2, §3, §4

[4] = system: IKK (IκB-α stabilization); experiment: IκB-α accumulation in Xenopus extracts as readout of IKK inhibition (immunoblot); format: biochemical, Xenopus laevis; conditions: Xenopus extracts prepared without cycloheximide, Fig. 3A/3B
Procedure: We tested whether EF24 inhibits IKK activity in Xenopus extracts by monitoring the accumulation of the IKK target, IκB-α (Fig. 3A). Because IκB-α phosphorylation by IKK leads to its degradation by the ubiquitin-proteasome pathway, inhibition of IKK results in the accumulation of IκB-α. For this experiment, we used extracts prepared without cycloheximide to allow for de novo translation of IκB-α.
Extracts treated as indicated were analyzed by immunoblot using xFANCD2, IκB-α and tubulin-α antibodies. IκB-α protein level was used as readout for monitoring IKK inhibition. […] Experiment was performed as in (A). The structure of BMS-345541 is shown. The star denotes a non-specific band used as loading control.

[5] = system: IKK-2 (IKKβ) vs IKK-1 (IKKα); conditions: cited from earlier work
proteasome [6] = system: proteasome; set-up: method as in PMID 16982768; conditions: cited from earlier work
[7] = system: ubiquitin isopeptidase/deubiquitinase (DUB); set-up: method as in PMID 16982768; conditions: cited from earlier work

In the case of O=C1/C(=C/c2ccccc2F)COC/C1=C\c1ccccc1F [AS153-2], the “activity against xFANCD2-Ub in Xenopus extracts” value (from here on “activity against xFANCD2-Ub”) [1] is reported as “undetectable levels”.

With CC(C)(C)OC(=O)N1C/C(=C\c2ccccc2F)C(=O)/C(=C/c2ccccc2F)C1 [0616-104] the “activity against xFANCD2-Ub” value [1] was “non-detectable levels”.

With NC1C/C(=C\c2ccccc2F)C(=O)/C(=C/c2ccccc2F)C1 (stereo not shown) [0810-117] the “proteasome inhibition” value (proteasome [2]) was “weak inhibitory activities against both the proteasome and xFANCD2-Ub” and the “activity against xFANCD2-Ub” value [1] was “non-detectable levels”.

For COc1cc(/C=C/C(=O)CC(=O)/C=C/c2ccc(O)c(OC)c2)ccc1O [curcumin], the “proteasome inhibition” value (proteasome [2]) was “efficiently inhibited both proteasome activities”, the IC50 (hFANCD2-Ub in HeLa cells) was 15 µM and the IC50 (334ATM WT cells; Mus musculus) was 17 µM. For the same compound, the “sensitivity of 309ATM KO cells compared to 334ATM WT cells” value (309ATM KO cells) was “slightly more resistant”, the IC50 (309ATM KO cells; Mus musculus) was 23 µM and the “activity against xFANCD2-Ub” value [1] was “only a weak activity on xFANCD2-Ub”. The IC50 [1] was > 2000 µM.

In the case of Cc1ccc2nc(NCCN)c3ncc(C)n3c2c1 [BMS-345541, reference compound], the “effect on xMRE11 phosphorylation” value [3] is given as “MRE11 phosphorylation was inhibited”, the EC50 [4] is given as 280 µM and the “fold more active on IKK-2 (IKKβ) than on IKK-1 (IKKα)” value [5] is given as 10 fold. The EC50 ([1]; Xenopus extracts prepared without cycloheximide, Fig. 3A/3B, read-out: xFANCD2-Ub inhibition EC50) was 970 µM.

With O=C1/C(=C/c2ccccn2)CNC/C1=C\c1ccccn1 [EF31] the “fold less active than curcumin for proteasome inhibition” value (proteasome [2]) was 20 fold and the “activity against xFANCD2-Ub” value [1] was “strong activity against xFANCD2-Ub”.

With O=C1/C(=C/c2ccccn2)CSC/C1=C\c1ccccn1 [0821-120A] the “activity against xFANCD2-Ub” value [1] was “drops the activity only slightly”.

In the case of O=C1/C(=C/c2ccc(F)cc2)CNC/C1=C\c1ccc(F)cc1 [AS153-5], the “activity against xFANCD2-Ub” value [1] is reported as “much more potent than the corresponding thio-pyran analog”.

In the case of O=C1/C(=C/c2cccc(F)c2)CNC/C1=C\c1cccc(F)c1 [AS153-4], the “fold less active than curcumin for proteasome inhibition” value (proteasome [2]) is reported as 20 fold and the “activity against xFANCD2-Ub” value [1] is reported as “strong activity against xFANCD2-Ub”.

In the case of OC[C@H]1O[C@@H](n2cnc3cc(Cl)c(Cl)cc32)[C@H](O)[C@@H]1O [DRB, reference compound], the IC50 (334ATM WT cells) is reported as 60 µM, the IC50 (309ATM KO cells) is reported as 56 µM and the “activity against xFANCD2-Ub” value [1] is reported as “no effect on the FA pathway in Xenopus extracts”.

With CO[C@H]([C@H](O)CC(=O)[C@@H](C)[C@@H](O)CC[C@@H](C)[C@@H]1O[C@]2(CC[C@@H](C)[C@H](CC[C@H](C)C(C)=O)O2)CC[C@@H]1C)[C@H](OC(=O)C[C@@H](O)C1=C(C)C(=O)OC1=O)C(C)C [tautomycin, reference compound] the “effect on xMRE11 phosphorylation” value [3] was “accumulation of xMRE11-P” and the “activity against xFANCD2-Ub” value [1] was “no detectable effect on xFANCD2-Ub”.

For O=C1/C(=C/c2ccc([N+](=O)[O-])cc2)CS(=O)(=O)C/C1=C\c1ccc([N+](=O)[O-])cc1 [4H-TTD, 4H-Thiopyran-4-one, tetrahydro-3,5-bis [(4-nitrophenyl)methylene]-,1,1-dioxide], the proteasome activity (proteasome [6]) is listed as “did not inhibit proteasome activity”, the IC50 (hFANCD2-Ub in HeLa cells) is listed as 0.12 µM and the IC50 (334ATM WT cells; Mus musculus) is listed as 0.5 µM. The “ubiquitin isopeptidase/deubiquitinase (DUB) inhibition” value [7] was “exhibited ubiquitin isopeptidase/deubiquitinase (DUB) inhibition activity”, the “overall cell toxicity concentration relative to EF24” value (309ATM KO cells; 309ATM KO and 334ATM WT survival assay) was “about 10 times” and the “sensitivity of 309ATM KO cells compared to 334ATM WT cells” value (309ATM KO cells) was 3 fold. The IC50 (309ATM KO cells; Mus musculus) was 0.18 µM and the IC50 [1] was 250 µM.

In the case of O=C1/C(=C/c2ccccn2)COC/C1=C\c1ccccn1 [0822-3], the “activity against xFANCD2-Ub” value [1] is reported as “only weakly active”.

In the case of CC(C)C[C@@H](C=O)NC(=O)[C@H](CC(C)C)NC(=O)[C@H](CC(C)C)NC(=O)OCc1ccccc1 [MG132, reference compound] (Cbz-Leu-Leu-Leu-aldehyde), the “proteasome inhibition” value (proteasome [2]) is reported as “efficiently inhibited both proteasome activities” and the “activity against xFANCD2-Ub” value [1] is reported as “only a weak activity on xFANCD2-Ub”.
